Source: ChEMBL document CHEMBL5724914, “Linking interpersonal differences in gut microbiota composition and drug biotransformation activity” (2024)

How the values were obtained:
[1] = (§1) The drug is tested on Z-030 corresponding to mouse gut metagenome with ENA study accession number: PRJEB37062 and ENA sample accession number: ERS12561829 for biotransformation under anaerobic condition. The drug concentrations were measured over 9 timepoints collected between 0 and 24 hours of incubation by liquid-chromatography-coupled mass spectrometry (LC–MS); settings: 2 µM
[2] = as §1, with “Z-028” for “Z-030”, “ERS12561827” for “ERS12561829”; settings: 2 µM
[3] = as §1, with “Z-027” for “Z-030”, “to” for “to mouse gut”, “ERS12561826” for “ERS12561829”; settings: 2 µM
[4] = as §1, with “Z-019” for “Z-030”, “rat” for “mouse”, “ERS12561818” for “ERS12561829”; settings: 2 µM
[5] = as §1, with “Z-016” for “Z-030”, “ERS12561815” for “ERS12561829”; settings: 2 µM
[6] = as §1, with “Z-011” for “Z-030”, “ERS12561811” for “ERS12561829”; settings: 2 µM
[7] = as §1, with “Z-010” for “Z-030”, “to” for “to mouse gut”, “ERS12561810” for “ERS12561829”; settings: 2 µM
[8] = as §1, with “Z-004” for “Z-030”, “to” for “to mouse gut”, “ERS12561804” for “ERS12561829”; settings: 2 µM
[9] = as §1, with “WLS-240” for “Z-030”, “human” for “mouse”, “ERS12561773” for “ERS12561829”; settings: 2 µM
[10] = as §1, with “WLS-098” for “Z-030”, “human” for “mouse”, “ERS12561754” for “ERS12561829”; settings: 2 µM
[11] = as §1, with “WLS-038” for “Z-030”, “human” for “mouse”, “ERS12561745” for “ERS12561829”; settings: 2 µM
[12] = human gut metagenome, 24 h, 2 µM
[13] = human gut metagenome, 24 h, 2 µM; remark: listed apart in the source
[14] = human gut metagenome, 24 h, 2 µM; remark: listed apart in the source
[15] = human gut metagenome, 24 h, 2 µM; remark: listed apart in the source
[16] = human gut metagenome, 24 h, 2 µM; remark: listed apart in the source
[17] = human gut metagenome, 24 h, 2 µM; remark: listed apart in the source
[18] = human gut metagenome, 24 h, 2 µM; remark: listed apart in the source
[19] = human gut metagenome, 24 h, 2 µM; remark: listed apart in the source
[20] = human gut metagenome, 24 h, 2 µM; remark: listed apart in the source
Further: call rule not given here.

Compound | Bacterial Biotransformation [1] | Bacterial Biotransformation [2] | Bacterial Biotransformation [3] | Bacterial Biotransformation [4] | Bacterial Biotransformation [5] | Bacterial Biotransformation [6] | Bacterial Biotransformation [7] | Bacterial Biotransformation [8] | Bacterial Biotransformation [9] | Bacterial Biotransformation [10] | Bacterial Biotransformation [11] | Bacterial Biotransformation [12] | Bacterial Biotransformation [13] | Bacterial Biotransformation [14] | Bacterial Biotransformation [15] | Bacterial Biotransformation [16] | Bacterial Biotransformation [17] | Bacterial Biotransformation [18] | Bacterial Biotransformation [19] | Bacterial Biotransformation [20]
CC(CCc1ccccc1)NCC(O)c1ccc(O)c(C(N)=O)c1 (stereo not given) [LABETALOL] | Compound NOT metabolized | Compound NOT metabolized | Compound metabolized | Compound NOT metabolized | Compound NOT metabolized | Compound NOT metabolized | Compound NOT metabolized | Compound NOT metabolized | Compound metabolized | Compound NOT metabolized | Compound NOT metabolized | Compound NOT metabolized | Compound NOT metabolized | Compound metabolized | Compound NOT metabolized | Compound NOT metabolized | Compound NOT metabolized | Compound metabolized | Compound NOT metabolized | Compound NOT metabolized
Nc1nnc(-c2cccc(Cl)c2Cl)c(N)n1 [LAMOTRIGINE] | Compound NOT metabolized | Compound NOT metabolized | Compound NOT metabolized | Compound NOT metabolized | Compound NOT metabolized | Compound NOT metabolized | Compound NOT metabolized | Compound NOT metabolized | Compound metabolized | Compound metabolized | Compound NOT metabolized | Compound NOT metabolized | Compound NOT metabolized | Compound NOT metabolized | Compound metabolized | Compound NOT metabolized | Compound NOT metabolized | Compound NOT metabolized | Compound NOT metabolized | Compound NOT metabolized
OC(c1cc(C(F)(F)F)nc2c(C(F)(F)F)cccc12)C1CCCCN1 (stereo not given) [MEFLOQUINE] | Compound NOT metabolized | Compound NOT metabolized | Compound NOT metabolized | Compound NOT metabolized | Compound NOT metabolized | Compound metabolized | Compound metabolized | Compound NOT metabolized | Compound metabolized | Compound NOT metabolized | Compound metabolized | Compound metabolized | Compound metabolized | Compound NOT metabolized | Compound metabolized | Compound metabolized | Compound metabolized | Compound metabolized | Compound metabolized | Compound metabolized
CC(=O)O[C@]1(C(C)=O)CC[C@H]2[C@@H]3C=C(C)C4=CC(=O)CC[C@]4(C)[C@H]3CC[C@@]21C [MEGESTROL ACETATE] | Compound NOT metabolized | Compound metabolized | Compound metabolized | Compound NOT metabolized | Compound metabolized | Compound metabolized | Compound metabolized | Compound metabolized | Compound metabolized | Compound metabolized | Compound metabolized | Compound metabolized | Compound metabolized | Compound metabolized | Compound metabolized | Compound metabolized | Compound metabolized | Compound metabolized | Compound metabolized | Compound metabolized
CC12CC3CC(C)(C1)CC(N)(C3)C2 [MEMANTINE] | Compound NOT metabolized | Compound NOT metabolized | Compound NOT metabolized | Compound NOT metabolized | Compound NOT metabolized | Compound NOT metabolized | Compound NOT metabolized | Compound NOT metabolized | Compound NOT metabolized | Compound NOT metabolized | Compound NOT metabolized | Compound NOT metabolized | Compound NOT metabolized | Compound NOT metabolized | Compound NOT metabolized | Compound NOT metabolized | Compound NOT metabolized | Compound NOT metabolized | Compound NOT metabolized | Compound NOT metabolized
Cc1cc(C)cc(OCC2CNC(=O)O2)c1 (stereo not given) [METAXALONE] | Compound NOT metabolized | Compound NOT metabolized | Compound metabolized | Compound NOT metabolized | Compound NOT metabolized | Compound NOT metabolized | Compound NOT metabolized | Compound NOT metabolized | Compound metabolized | Compound metabolized | Compound metabolized | Compound metabolized | Compound NOT metabolized | Compound metabolized | Compound metabolized | Compound metabolized | Compound metabolized | Compound metabolized | Compound metabolized | Compound metabolized
COC(=O)C(c1ccccc1)C1CCCCN1 (stereo not given) [METHYLPHENIDATE] | Compound NOT metabolized | Compound NOT metabolized | Compound NOT metabolized | Compound NOT metabolized | Compound NOT metabolized | Compound NOT metabolized | Compound NOT metabolized | Compound metabolized | Compound metabolized | Compound NOT metabolized | Compound NOT metabolized | Compound NOT metabolized | Compound NOT metabolized | Compound metabolized | Compound NOT metabolized | Compound NOT metabolized | Compound NOT metabolized | Compound NOT metabolized | Compound metabolized | Compound NOT metabolized
CN1CCN2c3ccccc3Cc3ccccc3C2C1 (stereo not given) [MIANSERIN] | Compound NOT metabolized | Compound NOT metabolized | Compound NOT metabolized | Compound NOT metabolized | Compound NOT metabolized | Compound metabolized | Compound metabolized | Compound NOT metabolized | Compound NOT metabolized | Compound metabolized | Compound NOT metabolized | Compound NOT metabolized | Compound NOT metabolized | Compound NOT metabolized | Compound metabolized | Compound NOT metabolized | Compound NOT metabolized | Compound NOT metabolized | Compound metabolized | Compound NOT metabolized
